Laboratory results as given in ChEMBL document CHEMBL4000206, “An efficient anticoagulant candidate: Characterization, synthesis and in vivo study of a fondaparinux analogue Rrt1.17” (Eur J Med Chem, 2017).
Active and inactive are the calls of the source. The calls are words filed in the database; no cut-off is given here.

What was measured:
Coagulation factor X [1] = target: T1, Coagulation factor X (Homo sapiens, UniProt P00742); experiment: Inhibition of factor 10a (unknown origin) using S-2765 as substrate preincubated with AT-3 followed by factor 10a addition for 60 secs and subsequent addition of substrate for 60 secs measured after 4 mins
Coagulation factor X [2] = target: T1, Coagulation factor X; experiment: Inhibition of factor 10a (unknown origin) using S-2765 as substrate assessed as compound potency preincubated with AT-3 followed by factor 10a addition for 60 secs and subsequent addition of substrate for 60 secs measured after 4 mins
Rattus norvegicus [3] = experiment: Antithrombotic activity in Wistar rat venous thrombosis model assessed as reduction in weight of vein thrombus at 300 IU/kg, sc administered 1 hr prior to induction of thrombosis measured after 30 mins; type: functional, organism-based
Rattus norvegicus [4] = experiment: Antithrombotic activity in Wistar rat venous thrombosis model assessed as reduction in weight of vein thrombus at 100 to 500 IU/kg, sc administered 1 hr prior to induction of thrombosis measured after 30 mins; type: functional, organism-based

T1 sequence (P00742 41-179 limits assumed): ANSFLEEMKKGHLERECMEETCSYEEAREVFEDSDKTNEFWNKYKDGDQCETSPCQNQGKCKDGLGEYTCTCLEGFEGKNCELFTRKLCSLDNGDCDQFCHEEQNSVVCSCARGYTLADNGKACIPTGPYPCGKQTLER
T1 sequence (P00742 235-488 limits assumed): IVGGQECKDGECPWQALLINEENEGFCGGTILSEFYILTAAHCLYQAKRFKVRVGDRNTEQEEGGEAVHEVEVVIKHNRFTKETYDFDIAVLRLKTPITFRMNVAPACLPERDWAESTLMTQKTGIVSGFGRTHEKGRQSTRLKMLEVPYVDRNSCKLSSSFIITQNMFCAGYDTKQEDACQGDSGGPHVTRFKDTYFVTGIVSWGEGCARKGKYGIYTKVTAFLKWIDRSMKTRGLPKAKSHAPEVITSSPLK

Row | IC50 (Coagulation factor X [1]) | INH (Coagulation factor X [2]) | SMILES | Activity (Rattus norvegicus [3]) | Activity (Rattus norvegicus [4])
1 | 0.978 nM | 1170 IU/mg | CO[C@H]1O[C@H](COS(=O)(=O)O)[C@@H](O[C@@H]2O[C@@H](C(=O)O)[C@@H](O[C@@H]3O[C@H](COS(=O)(=O)O)[C@@H](O[C@@H]4O[C@H](C(=O)O)[C@@H](O[C@H]5O[C@H](COS(=O)(=O)O)[C@@H](O)[C@H](O)[C@H]5NS(=O)(=O)O)[C@H](O)[C@H]4O)[C@H](OS(=O)(=O)O)[C@H]3NS(=O)(=O)O)[C@H](O)[C@H]2OS(=O)(=O)O)[C@H](O)[C@H]1NS(=O)(=O)O | Active | –
2 | 494 nM | 2.15 IU/mg | CO[C@H]1O[C@H](COS(=O)(=O)O)[C@@H](O[C@@H]2O[C@@H](C(=O)O)[C@@H](O[C@@H]3O[C@H](COS(=O)(=O)O)[C@@H](O[C@@H]4O[C@H](C(=O)O)[C@@H](O[C@H]5O[C@H](COS(=O)(=O)O)[C@@H](O)[C@H](O)[C@H]5NS(=O)(=O)O)[C@H](O)[C@H]4O)[C@H](OS(=O)(=O)O)[C@H]3N)[C@H](O)[C@H]2OS(=O)(=O)O)[C@H](O)[C@H]1NS(=O)(=O)O | – | –
3 | 3 nM | 719 IU/mg | CC.COC1O[C@H](COS(=O)(=O)O)[C@@H](O[C@@H]2O[C@@H](C(=O)O)[C@@H](O[C@@H]3O[C@H](COS(=O)(=O)O)[C@@H](O[C@@H]4O[C@H](C(=O)O)[C@@H](O[C@H]5O[C@H](COS(=O)(=O)O)[C@@H](O)[C@H](O)[C@H]5NS(=O)(=O)O)[C@H](O)[C@H]4O)[C@H](OS(=O)(=O)O)[C@H]3NS(=O)(=O)O)[C@H](O)[C@H]2OS(=O)(=O)O)[C@H](O)[C@H]1NS(=O)(=O)O (single isomer, unassigned) | – | –
4 | 1.14 nM | 1260 IU/mg | CO[C@H]1O[C@H](COS(=O)(=O)O)[C@@H](O[C@@H]2O[C@@H](C(=O)O)[C@@H](O[C@@H]3O[C@H](COS(=O)(=O)O)[C@@H](O[C@@H]4O[C@H](C(=O)O)[C@@H](O[C@H]5O[C@H](COS(=O)(=O)O)[C@@H](O)[C@H](O)[C@H]5NC=O)[C@H](O)[C@H]4O)[C@H](OS(=O)(=O)O)[C@H]3NS(=O)(=O)O)[C@H](O)[C@H]2OS(=O)(=O)O)[C@H](O)[C@H]1NS(=O)(=O)O | – | –

Continued, compound first:

Row | SMILES | IC50 (Coagulation factor X [1]) | INH (Coagulation factor X [2]) | Activity (Rattus norvegicus [3]) | Activity (Rattus norvegicus [4])
5 | CC.O=C(O)[C@H]1O[C@@H](O[C@H]2[C@H](OS(=O)(=O)O)[C@@H](NS(=O)(=O)O)[C@H](O[C@H]3[C@H](O)[C@@H](OS(=O)(=O)O)[C@H](O[C@@H]4[C@H](O)[C@@H](CO)O[C@@H]4CS(=O)(=O)O)O[C@H]3C(=O)O)O[C@@H]2COS(=O)(=O)O)[C@H](O)[C@@H](O)[C@@H]1O[C@H]1O[C@H](COS(=O)(=O)O)[C@@H](O)[C@H](O)[C@H]1NS(=O)(=O)O | 20.7 nM | – | – | –
6 | CO[C@H]1O[C@H](COS(=O)(=O)O)[C@@H](O[C@@H]2O[C@@H](C(=O)O)[C@@H](O[C@@H]3O[C@H](COS(=O)(=O)O)[C@@H](O[C@@H]4O[C@H](C(=O)O)[C@@H](O[C@H]5O[C@H](COS(=O)(=O)O)[C@@H](O)[C@H](O)[C@H]5N)[C@H](O)[C@H]4O)[C@H](OS(=O)(=O)O)[C@H]3N)[C@H](O)[C@H]2OS(=O)(=O)O)[C@H](O)[C@H]1NS(=O)(=O)O | 967 nM | 1.32 IU/mg | – | –
7 | CO[C@H]1O[C@H](COS(=O)(=O)O)[C@@H](O[C@@H]2O[C@@H](C(=O)O)[C@@H](O[C@@H]3O[C@H](COS(=O)(=O)O)[C@@H](O[C@@H]4O[C@H](C(=O)O)[C@@H](O[C@H]5O[C@H](COS(=O)(=O)O)[C@@H](O)[C@H](O)[C@H]5NS(=O)(=O)O)[C@H](O)[C@H]4O)[C@H](OS(=O)(=O)O)[C@H]3NS(=O)(=O)O)[C@H](OS(=O)(=O)O)[C@H]2OS(=O)(=O)O)[C@H](O)[C@H]1NS(=O)(=O)O | 9.25 nM | 185 IU/mg | – | –
8 | CO[C@H]1O[C@H](COS(=O)(=O)O)[C@@H](O[C@@H]2O[C@H]3C(=O)N[C@H]4[C@H](O[C@@H]3[C@H](O)[C@H]2OS(=O)(=O)O)O[C@H](COS(=O)(=O)O)[C@@H](O[C@@H]2O[C@H](C(=O)O)[C@@H](O[C@H]3O[C@H](COS(=O)(=O)O)[C@@H](O)[C@H](O)[C@H]3NS(=O)(=O)O)[C@H](O)[C@H]2O)[C@@H]4OS(=O)(=O)O)[C@H](O)[C@H]1NS(=O)(=O)O | 19.9 nM | 83.5 IU/mg | – | –
9 | CO[C@H]1O[C@H](COS(=O)(=O)O)[C@@H](O[C@@H]2O[C@@H](C(=O)O)[C@@H](O[C@@H]3O[C@H](COS(=O)(=O)O)[C@@H](O[C@@H]4O[C@H](C(=O)O)[C@@H](O[C@H]5O[C@H](COS(=O)(=O)O)[C@@H](O)[C@H](O)[C@H]5NS(=O)(=O)O)[C@H](O)[C@H]4O)[C@H](OS(=O)(=O)O)[C@H]3NS(=O)(=O)O)[C@H](O)[C@H]2OS(=O)(=O)O)[C@H](O)[C@H]1N(C)S(=O)(=O)O | 1.65 nM | 1140 IU/mg | – | Active
